The test deals with lesions of telangiectatic melasma. The text has this:
As is known, the increase in pigmentation occurs to a greater extent during the day, wherein the action of the light is an important causal factor.

Each structure is given as a SMILES string.

As to `Brc1c(NC2=NCCN2)ccc2nccnc12` [brimonidine], where the note is “applied in the morning”, the “duration of effects in minimising the deterioration brought about by sunlight” value was “up to 9 hours”. Besides, the “improvement of the lesions of telangiectatic melasma” value (topical, following a period of 30 to 60 minutes from application) was “immediate and obvious improvement”. In addition, the “improvement in the hyperpigmentation of the skin of the melasma lesions” value (topical, minutes following application, patient (FIGS. 1-4)) is given as “effective improvement in the hyperpigmentation”.

The record behind these values is patent US10744135B2, “Use of an active substance in the treatment of melasma” (priority 2016, dated 2020).
